Measured values published in PubChem BioAssay (NCI).
Values joined by “and” are separate entries in the source; they are usually repeats but may differ in a detail not shown here. Equal values may be shown once.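 Results reflect a 48-hour exposure of cells in 96-well plates to compound at five concentrations. GI50 is the concentration that inhibits growth by half. The concentration for full growth arrest is given as TGI.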

Key:
Assay in all cases: inhibition of tumour cell growth, NCI panel, 48 h
SK-MEL-5 melanoma = tested on: SK-MEL-5 melanoma
IGROV1 ovarian = tested on: IGROV1 ovarian
RPMI-8226 leukemia = tested on: RPMI-8226 leukemia
KM12 colon = tested on: KM12 colon
MALME-3M melanoma = tested on: MALME-3M melanoma
SW-620 colon = tested on: SW-620 colon
OVCAR-8 ovarian = tested on: OVCAR-8 ovarian
OVCAR-4 ovarian = tested on: OVCAR-4 ovarian
TK-10 renal = tested on: TK-10 renal
T-47D breast = tested on: T-47D breast

## O=C1Cc2ccccc2N1/N=C\c1ccc(O)cc1
SK-MEL-5 melanoma
  TGI: > 100 µM
IGROV1 ovarian
  TGI: > 100 µM
RPMI-8226 leukemia
  TGI: > 100 µM
KM12 colon
  TGI: > 100 µM
MALME-3M melanoma
  TGI: > 100 µM
SW-620 colon
  TGI: > 100 µM
OVCAR-8 ovarian
  TGI: > 100 µM
OVCAR-4 ovarian
  TGI: > 100 µM
TK-10 renal
  TGI: > 100 µM

## Nc1c(C(=O)Nc2cccc3ccccc23)sc2nc3c(cc12)CCCC3
SK-MEL-5 melanoma
  GI50: 0.459 µM
  TGI: 10.7 µM
IGROV1 ovarian
  GI50: 2.34 µM
  TGI: > 100 µM
RPMI-8226 leukemia
  GI50: 2.77 µM
  TGI: > 100 µM
KM12 colon
  GI50: 0.675 µM
  TGI: > 100 µM
T-47D breast
  GI50: 0.44 µM
  TGI: 90.5 µM
SW-620 colon
  GI50: 0.552 µM
  TGI: > 100 µM
OVCAR-8 ovarian
  GI50: 4.56 µM
  TGI: > 100 µM
OVCAR-4 ovarian
  GI50: 1.11 µM
  TGI: > 100 µM
TK-10 renal
  GI50: 14.6 µM
  TGI: > 100 µM

## COc1cc(/C=C/C(=O)c2c(C)n([O-])c3cc(C)c(C)cc3[n+]2=O)cc(OC)c1OC
SK-MEL-5 melanoma
  GI50: 13.9 µM
  TGI: 34 µM
IGROV1 ovarian
  GI50: 12.8 µM
  TGI: 29.4 µM
KM12 colon
  GI50: 13.1 µM
  TGI: 32.6 µM
MALME-3M melanoma
  GI50: 19.6 µM
  TGI: 41.1 µM
T-47D breast
  GI50: 20.5 µM
  TGI: 73.7 µM
SW-620 colon
  GI50: 13.6 µM
  TGI: 40.7 µM
OVCAR-8 ovarian
  GI50: 23.6 µM
  TGI: 71.8 µM
OVCAR-4 ovarian
  GI50: 16.5 µM
  TGI: 48 µM
TK-10 renal
  GI50: 14.8 µM
  TGI: 31.2 µM

## Cc1cc[c-]cc1.Fc1c[c-]c(-c2ccccn2)c(F)c1.N#CCC[PH+](CCC#N)c1ccccc1.[Pt+2]
SK-MEL-5 melanoma
  GI50: 2.24 µM
  TGI: 5.36 µM
IGROV1 ovarian
  GI50: 2.89 µM
  TGI: 21.9 µM
RPMI-8226 leukemia
  GI50: 3.3 µM
  TGI: 31.2 µM
KM12 colon
  GI50: 3.39 µM
  TGI: 13.2 µM
T-47D breast
  GI50: 2.79 µM
  TGI: 41.1 µM
SW-620 colon
  GI50: 2.25 µM
  TGI: 5.35 µM
OVCAR-8 ovarian
  GI50: 4 µM
  TGI: > 100 µM
OVCAR-4 ovarian
  GI50: 2.97 µM
  TGI: 24.5 µM
TK-10 renal
  GI50: 4.45 µM
  TGI: 36 µM

## C(=C1\CCC/C(=C/c2ccccc2)C1=NNc1ccccc1)/c1ccccc1
SK-MEL-5 melanoma
  TGI: > 100 µM
IGROV1 ovarian
  TGI: > 100 µM
RPMI-8226 leukemia
  TGI: > 100 µM
KM12 colon
  TGI: > 100 µM
MALME-3M melanoma
  TGI: > 100 µM
SW-620 colon
  TGI: > 100 µM
OVCAR-8 ovarian
  TGI: > 100 µM
OVCAR-4 ovarian
  TGI: > 100 µM
TK-10 renal
  TGI: > 100 µM

## O=S(=O)(NC(=S)Nc1ccccc1)c1ccc(N2N=C3c4ccccc4CC3C2c2ccc(Cl)cc2)cc1 (stereo not given)
SK-MEL-5 melanoma
  GI50: 20.4 µM
  TGI: 40.9 µM
IGROV1 ovarian
  GI50: 20.2 µM
  TGI: 49.3 µM
RPMI-8226 leukemia
  GI50: 19.6 µM
  TGI: 66.7 µM
KM12 colon
  GI50: 19.4 µM
  TGI: 55.3 µM
T-47D breast
  GI50: 36.3 µM
  TGI: > 100 µM
SW-620 colon
  GI50: 29.7 µM
  TGI: 75.7 µM
OVCAR-8 ovarian
  GI50: 26.8 µM
  TGI: 71.1 µM
OVCAR-4 ovarian
  GI50: 42.2 µM
  TGI: > 100 µM
TK-10 renal
  GI50: 30.2 µM
  TGI: 99.4 µM

## CC(C)O/C=C1\C(=O)C2(SCCS2)[C@H]2CCCC[C@@H]12
SK-MEL-5 melanoma
  TGI: > 100 µM
IGROV1 ovarian
  TGI: > 100 µM
RPMI-8226 leukemia
  TGI: 81 µM
KM12 colon
  TGI: > 100 µM
MALME-3M melanoma
  TGI: > 100 µM
SW-620 colon
  TGI: > 100 µM
OVCAR-8 ovarian
  TGI: > 100 µM
OVCAR-4 ovarian
  TGI: > 100 µM
TK-10 renal
  TGI: > 100 µM

## Cn1cc(-c2csc(-c3cn(CCN4CCOCC4)c4ccc(F)cc34)n2)c2cccnc21
SK-MEL-5 melanoma
  GI50: 1.85 µM
  TGI: 3.56 µM
IGROV1 ovarian
  GI50: 2.91 µM
  TGI: 14.1 µM
RPMI-8226 leukemia
  GI50: 1.68 µM
  TGI: 4.96 µM
KM12 colon
  GI50: 2.85 µM
  TGI: 11.1 µM
MALME-3M melanoma
  GI50: 2.88 µM
  TGI: 12.3 µM
T-47D breast
  GI50: 1.52 µM
  TGI: 4.73 µM
SW-620 colon
  GI50: 3.62 µM
  TGI: 57.5 µM
OVCAR-8 ovarian
  GI50: 2.75 µM
  TGI: 7.88 µM
TK-10 renal
  GI50: 3.28 µM
  TGI: 18.8 µM

## Cc1cc2nc3ccc(N=Nc4ccc(N(C)C)cc4)cc3n(-c3ccccc3)c-2cc1=N
SK-MEL-5 melanoma
  GI50: 0.0235 µM
  TGI: 0.143 µM
IGROV1 ovarian
  GI50: 0.0221 µM and 0.0328 µM
RPMI-8226 leukemia
  GI50: 0.00254 µM
  TGI: 0.02 µM
KM12 colon
  GI50: 0.0174 µM
  TGI: 0.116 µM
T-47D breast
  GI50: 0.00296 µM
  TGI: 0.0706 µM
SW-620 colon
  GI50: 0.0221 µM
  TGI: 0.12 µM
OVCAR-8 ovarian
  GI50: 0.0232 µM and 0.0414 µM
OVCAR-4 ovarian
  GI50: 0.0116 µM and 0.0415 µM
  TGI: 0.12 µM and 0.802 µM

## CC(=O)Nc1ccc(-c2nnc(SCC(=O)Nc3ccccc3[N+](=O)[O-])o2)cc1
SK-MEL-5 melanoma
  TGI: > 100 µM
IGROV1 ovarian
  TGI: > 100 µM
RPMI-8226 leukemia
  TGI: > 100 µM
KM12 colon
  TGI: > 100 µM
MALME-3M melanoma
  TGI: > 100 µM
SW-620 colon
  TGI: > 100 µM
OVCAR-8 ovarian
  TGI: > 100 µM
OVCAR-4 ovarian
  TGI: > 100 µM
TK-10 renal
  TGI: > 100 µM

## CC1SC2=NC3=C(c4ccccc4C3=O)C(c3ccc(Br)cc3)N2C1=O (stereo not given)
SK-MEL-5 melanoma
  TGI: > 100 µM
IGROV1 ovarian
  TGI: > 100 µM
RPMI-8226 leukemia
  TGI: > 100 µM
KM12 colon
  TGI: > 100 µM
MALME-3M melanoma
  TGI: > 100 µM
SW-620 colon
  TGI: > 100 µM
OVCAR-8 ovarian
  TGI: > 100 µM
OVCAR-4 ovarian
  TGI: > 100 µM
TK-10 renal
  TGI: > 100 µM

## N/C(=N\OC(=O)NC(Cl)=C(Cl)Cl)c1cc(C(F)(F)F)cc(C(F)(F)F)c1
SK-MEL-5 melanoma
  TGI: 89.6 µM
IGROV1 ovarian
  TGI: 66 µM
RPMI-8226 leukemia
  TGI: 34.8 µM
KM12 colon
  TGI: 31.1 µM
MALME-3M melanoma
  TGI: 48.6 µM
T-47D breast
  TGI: 25.7 µM
SW-620 colon
  TGI: 40.3 µM
OVCAR-8 ovarian
  TGI: 40.6 µM
TK-10 renal
  TGI: 30.4 µM

## COc1ccc(S(=O)(=O)O)cc1NS(=O)(=O)c1ccc(C)cc1
SK-MEL-5 melanoma
  TGI: > 100 µM
IGROV1 ovarian
  TGI: > 100 µM
RPMI-8226 leukemia
  TGI: > 100 µM
KM12 colon
  TGI: > 100 µM
T-47D breast
  TGI: > 100 µM
SW-620 colon
  TGI: > 100 µM
OVCAR-8 ovarian
  TGI: > 100 µM
OVCAR-4 ovarian
  TGI: > 100 µM
TK-10 renal
  TGI: > 100 µM

## COc1ccc(/C=C/c2nc(N3CCOCC3)c3cc(F)c(F)cc3n2)cc1OC
SK-MEL-5 melanoma
  GI50: 1.18 µM
  TGI: 2.81 µM
IGROV1 ovarian
  GI50: 47.4 µM
  TGI: > 100 µM
RPMI-8226 leukemia
  GI50: 2.7 µM
  TGI: > 100 µM
KM12 colon
  GI50: 4.59 µM
  TGI: > 100 µM
T-47D breast
  GI50: 1.49 µM
  TGI: 9.72 µM
SW-620 colon
  GI50: 6.1 µM
  TGI: > 100 µM
OVCAR-8 ovarian
  GI50: 4.57 µM
  TGI: > 100 µM
OVCAR-4 ovarian
  GI50: 1.43 µM
  TGI: > 100 µM
TK-10 renal
  GI50: 4.84 µM
  TGI: > 100 µM

## COc1ccc(-c2nnc3n(C)c(=O)c4ccccc4n23)cc1O
SK-MEL-5 melanoma
  GI50: 0.15 µM
  TGI: > 100 µM
IGROV1 ovarian
  GI50: 2.69 µM
  TGI: > 86.3 µM
RPMI-8226 leukemia
  GI50: 5.01 µM
  TGI: > 100 µM
KM12 colon
  GI50: 0.152 µM
  TGI: > 100 µM
T-47D breast
  GI50: 2.41 µM
  TGI: > 100 µM
SW-620 colon
  GI50: 0.149 µM
  TGI: > 100 µM
OVCAR-8 ovarian
  GI50: 1.52 µM
  TGI: > 100 µM
OVCAR-4 ovarian
  GI50: 4.32 µM
  TGI: > 100 µM
TK-10 renal
  GI50: 6.8 µM
  TGI: > 100 µM

## COc1cc(C)c(C(=O)/C=C/c2cc(OC)c(O)c(OC)c2)cc1O
SK-MEL-5 melanoma
  TGI: 33.6 µM
IGROV1 ovarian
  TGI: 85 µM
RPMI-8226 leukemia
  TGI: > 100 µM
KM12 colon
  TGI: 50 µM
MALME-3M melanoma
  TGI: 36.9 µM
SW-620 colon
  TGI: 70.8 µM
OVCAR-8 ovarian
  TGI: > 100 µM
OVCAR-4 ovarian
  TGI: 49.3 µM
TK-10 renal
  TGI: > 100 µM

## O=C1Nc2ccccc2C12CC(c1ccccc1)=NN2 (stereo not given)
SK-MEL-5 melanoma
  GI50: 4.81 µM
  TGI: > 100 µM
IGROV1 ovarian
  GI50: 5.75 µM
  TGI: 75.9 µM
RPMI-8226 leukemia
  GI50: 5.53 µM
  TGI: 90.5 µM
KM12 colon
  GI50: 4.76 µM
  TGI: > 100 µM
MALME-3M melanoma
  GI50: 3.89 µM
  TGI: > 100 µM
T-47D breast
  GI50: 6.98 µM
  TGI: > 100 µM
SW-620 colon
  GI50: 3.75 µM
  TGI: > 100 µM
OVCAR-8 ovarian
  GI50: 9.28 µM
  TGI: 96.9 µM
OVCAR-4 ovarian
  GI50: 23.6 µM
  TGI: > 100 µM
